Compound in one test: NC(=O)CCCCC1CCSS1 [lipoamide]
Kind of test: thermal stability z-score vs DMSO; higher = more thermally stabilized by treatment. The settings on record: HeLa, lipoamide concentration 100 µM. How it is done:
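Cellular thermal proteome profiling in HeLa cells. Cells were treated with 100 µM lipoamide for 1 h, with or without 1 mM arsenate for a further 1 h, then heated to ten temperatures (37-66.3 °C), and soluble protein was quantified by TMT mass spectrometry relative to 0.1% DMSO controls. The thermal stability score (sum of log2 fold changes minus the abundance score) was transformed to a z-score; mean of n = 3 experiments.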

Compound in the next test: O=[As]([O-])(O)O.[K+] [potassium arsenate]
The test is described as above. The conditions noted are these: HeLa; arsenate concentration 1 mM. Here is the method:
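Cellular thermal proteome profiling in HeLa cells treated with 1 mM arsenate for 1 h (DMSO pretreatment), heated to ten temperatures (37-66.3 °C). Soluble protein was quantified by TMT mass spectrometry relative to DMSO controls; the thermal stability score was transformed to a z-score; mean of n = 3 experiments.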

The mark [1] stands for this setting: arsenate co-treatment: 1 mM arsenate 1 h.
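Also: each temperature applied for 3 min, abundance score taken as mean log2 fold change at the two lowest temperatures, z-score obtained by mean subtraction and division by SD.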

Chain of UniProt P19256 (P19256 whole entry): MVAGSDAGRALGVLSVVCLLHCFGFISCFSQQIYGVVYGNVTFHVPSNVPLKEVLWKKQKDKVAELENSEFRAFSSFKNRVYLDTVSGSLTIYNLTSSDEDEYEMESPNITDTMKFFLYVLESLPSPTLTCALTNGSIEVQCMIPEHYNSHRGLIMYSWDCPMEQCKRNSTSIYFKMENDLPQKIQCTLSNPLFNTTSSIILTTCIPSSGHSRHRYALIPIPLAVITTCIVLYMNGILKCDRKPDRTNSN
Chain of UniProt Q13618 (Q13618 whole entry): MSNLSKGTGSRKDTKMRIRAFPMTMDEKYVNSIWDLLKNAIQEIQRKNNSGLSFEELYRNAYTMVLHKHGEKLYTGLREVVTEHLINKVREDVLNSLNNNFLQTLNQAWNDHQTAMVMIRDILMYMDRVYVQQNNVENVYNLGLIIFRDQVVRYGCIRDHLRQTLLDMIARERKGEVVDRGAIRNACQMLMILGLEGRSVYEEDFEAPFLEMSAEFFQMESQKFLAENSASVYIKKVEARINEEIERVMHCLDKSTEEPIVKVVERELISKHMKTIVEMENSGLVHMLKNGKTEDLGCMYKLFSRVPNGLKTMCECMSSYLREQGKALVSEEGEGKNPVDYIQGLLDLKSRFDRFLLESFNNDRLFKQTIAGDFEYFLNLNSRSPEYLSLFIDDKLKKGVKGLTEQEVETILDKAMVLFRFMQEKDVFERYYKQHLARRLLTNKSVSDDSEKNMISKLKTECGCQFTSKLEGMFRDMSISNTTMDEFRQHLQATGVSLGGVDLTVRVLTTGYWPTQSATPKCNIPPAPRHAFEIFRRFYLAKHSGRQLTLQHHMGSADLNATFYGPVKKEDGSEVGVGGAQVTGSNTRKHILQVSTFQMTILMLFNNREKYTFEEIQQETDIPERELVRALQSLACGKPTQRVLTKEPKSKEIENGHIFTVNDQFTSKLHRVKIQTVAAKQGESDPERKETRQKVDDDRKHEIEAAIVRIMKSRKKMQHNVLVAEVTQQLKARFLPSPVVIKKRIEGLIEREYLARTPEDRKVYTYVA
Chain of UniProt O76071 (O76071 whole entry): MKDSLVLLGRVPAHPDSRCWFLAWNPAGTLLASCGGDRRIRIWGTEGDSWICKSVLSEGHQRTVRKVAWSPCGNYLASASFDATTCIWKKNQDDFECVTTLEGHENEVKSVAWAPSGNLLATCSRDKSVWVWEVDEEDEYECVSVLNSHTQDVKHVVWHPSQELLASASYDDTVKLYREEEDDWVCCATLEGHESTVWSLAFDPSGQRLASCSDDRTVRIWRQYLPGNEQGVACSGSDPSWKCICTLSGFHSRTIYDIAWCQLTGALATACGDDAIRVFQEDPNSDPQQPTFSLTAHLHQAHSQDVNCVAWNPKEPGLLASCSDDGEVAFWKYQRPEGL
Chain of UniProt P62699 (P62699 whole entry): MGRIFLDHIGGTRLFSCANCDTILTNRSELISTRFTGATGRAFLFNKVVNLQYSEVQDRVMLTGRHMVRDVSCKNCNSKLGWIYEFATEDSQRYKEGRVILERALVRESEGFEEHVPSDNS
Chain of UniProt Q9NYR9 (Q9NYR9 whole entry): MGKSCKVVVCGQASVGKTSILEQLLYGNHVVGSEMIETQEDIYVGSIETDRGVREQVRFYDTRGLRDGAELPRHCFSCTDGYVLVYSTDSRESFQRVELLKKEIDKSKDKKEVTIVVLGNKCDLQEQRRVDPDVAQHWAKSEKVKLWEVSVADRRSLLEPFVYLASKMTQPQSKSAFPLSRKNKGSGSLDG
Chain of UniProt O75879 (O75879 whole entry): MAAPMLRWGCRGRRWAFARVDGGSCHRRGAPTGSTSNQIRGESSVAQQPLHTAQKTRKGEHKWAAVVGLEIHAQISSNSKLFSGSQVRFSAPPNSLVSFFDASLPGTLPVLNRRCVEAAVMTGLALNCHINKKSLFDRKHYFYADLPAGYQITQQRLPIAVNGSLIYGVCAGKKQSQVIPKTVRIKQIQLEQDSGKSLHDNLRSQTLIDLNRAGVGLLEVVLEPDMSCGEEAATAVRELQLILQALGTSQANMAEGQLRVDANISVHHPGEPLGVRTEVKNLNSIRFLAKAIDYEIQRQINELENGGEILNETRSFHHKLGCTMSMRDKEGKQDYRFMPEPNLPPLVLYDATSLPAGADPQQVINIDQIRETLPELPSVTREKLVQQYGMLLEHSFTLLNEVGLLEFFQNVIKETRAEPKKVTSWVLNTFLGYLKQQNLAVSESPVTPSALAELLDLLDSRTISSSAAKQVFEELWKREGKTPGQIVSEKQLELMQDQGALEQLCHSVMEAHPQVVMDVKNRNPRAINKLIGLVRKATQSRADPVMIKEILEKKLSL
Chain of UniProt Q9Y2H1 (Q9Y2H1 whole entry, looked up): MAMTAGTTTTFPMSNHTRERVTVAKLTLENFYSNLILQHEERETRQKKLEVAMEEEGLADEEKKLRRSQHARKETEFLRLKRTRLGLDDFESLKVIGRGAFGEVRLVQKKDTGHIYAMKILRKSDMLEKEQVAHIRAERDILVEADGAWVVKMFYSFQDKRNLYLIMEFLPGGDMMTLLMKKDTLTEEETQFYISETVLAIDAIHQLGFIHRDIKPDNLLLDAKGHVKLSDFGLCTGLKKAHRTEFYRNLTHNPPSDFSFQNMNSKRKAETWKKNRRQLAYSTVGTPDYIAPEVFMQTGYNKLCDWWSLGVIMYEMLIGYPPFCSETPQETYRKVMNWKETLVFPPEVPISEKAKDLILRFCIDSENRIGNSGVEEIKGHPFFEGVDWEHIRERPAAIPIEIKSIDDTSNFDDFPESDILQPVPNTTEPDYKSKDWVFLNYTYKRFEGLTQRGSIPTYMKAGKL
Chain of UniProt Q96HP0 (Q96HP0 whole entry): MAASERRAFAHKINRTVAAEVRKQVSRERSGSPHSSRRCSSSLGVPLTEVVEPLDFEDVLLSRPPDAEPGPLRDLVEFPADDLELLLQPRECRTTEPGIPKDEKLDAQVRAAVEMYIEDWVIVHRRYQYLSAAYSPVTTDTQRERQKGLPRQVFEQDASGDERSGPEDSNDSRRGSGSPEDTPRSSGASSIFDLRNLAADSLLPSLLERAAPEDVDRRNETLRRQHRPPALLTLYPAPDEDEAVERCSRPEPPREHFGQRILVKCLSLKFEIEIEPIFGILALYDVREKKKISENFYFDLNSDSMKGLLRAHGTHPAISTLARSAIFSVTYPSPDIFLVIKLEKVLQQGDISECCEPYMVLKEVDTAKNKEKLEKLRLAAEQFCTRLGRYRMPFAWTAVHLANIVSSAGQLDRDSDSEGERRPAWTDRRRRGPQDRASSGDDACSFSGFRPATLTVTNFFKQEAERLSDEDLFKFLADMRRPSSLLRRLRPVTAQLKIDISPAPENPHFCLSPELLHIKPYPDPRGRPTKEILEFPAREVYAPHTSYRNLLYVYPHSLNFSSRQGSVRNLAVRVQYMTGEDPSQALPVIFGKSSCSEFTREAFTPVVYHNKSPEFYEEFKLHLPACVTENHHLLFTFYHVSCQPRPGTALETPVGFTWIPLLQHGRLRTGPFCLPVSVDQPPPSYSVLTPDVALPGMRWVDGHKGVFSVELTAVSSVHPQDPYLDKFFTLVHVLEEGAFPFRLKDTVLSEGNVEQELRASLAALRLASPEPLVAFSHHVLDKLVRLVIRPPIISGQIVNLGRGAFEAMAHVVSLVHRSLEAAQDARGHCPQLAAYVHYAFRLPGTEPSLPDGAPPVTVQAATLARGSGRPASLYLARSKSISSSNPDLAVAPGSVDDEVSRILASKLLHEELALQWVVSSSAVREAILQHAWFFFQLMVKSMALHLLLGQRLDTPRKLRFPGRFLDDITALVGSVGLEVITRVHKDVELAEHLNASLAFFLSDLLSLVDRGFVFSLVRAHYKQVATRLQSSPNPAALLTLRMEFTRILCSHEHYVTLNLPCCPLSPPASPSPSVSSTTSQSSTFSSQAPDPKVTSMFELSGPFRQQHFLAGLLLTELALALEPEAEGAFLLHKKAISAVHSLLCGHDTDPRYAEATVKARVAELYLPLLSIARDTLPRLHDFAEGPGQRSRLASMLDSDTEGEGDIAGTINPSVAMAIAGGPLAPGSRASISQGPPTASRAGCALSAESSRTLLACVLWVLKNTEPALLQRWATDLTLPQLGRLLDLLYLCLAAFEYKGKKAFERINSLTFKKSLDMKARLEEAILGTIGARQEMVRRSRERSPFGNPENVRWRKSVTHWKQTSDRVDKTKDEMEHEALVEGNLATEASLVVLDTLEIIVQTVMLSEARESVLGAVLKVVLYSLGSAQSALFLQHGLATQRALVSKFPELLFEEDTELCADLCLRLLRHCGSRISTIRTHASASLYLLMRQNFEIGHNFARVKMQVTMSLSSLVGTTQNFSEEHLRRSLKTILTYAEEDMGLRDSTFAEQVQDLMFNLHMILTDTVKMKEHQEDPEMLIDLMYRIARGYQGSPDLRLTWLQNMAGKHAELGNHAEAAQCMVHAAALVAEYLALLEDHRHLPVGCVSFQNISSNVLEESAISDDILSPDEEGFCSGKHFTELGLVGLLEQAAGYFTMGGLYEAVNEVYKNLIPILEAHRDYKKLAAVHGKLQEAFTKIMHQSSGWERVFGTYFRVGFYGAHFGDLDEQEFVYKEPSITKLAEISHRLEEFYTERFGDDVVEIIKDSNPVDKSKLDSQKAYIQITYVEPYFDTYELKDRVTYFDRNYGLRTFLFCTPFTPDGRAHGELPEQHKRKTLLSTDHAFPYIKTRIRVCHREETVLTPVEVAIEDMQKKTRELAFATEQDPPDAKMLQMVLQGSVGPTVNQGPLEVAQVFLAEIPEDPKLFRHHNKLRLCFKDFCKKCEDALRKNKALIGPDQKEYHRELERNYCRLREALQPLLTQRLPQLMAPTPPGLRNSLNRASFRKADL
Chain of UniProt O60671 (O60671 whole entry): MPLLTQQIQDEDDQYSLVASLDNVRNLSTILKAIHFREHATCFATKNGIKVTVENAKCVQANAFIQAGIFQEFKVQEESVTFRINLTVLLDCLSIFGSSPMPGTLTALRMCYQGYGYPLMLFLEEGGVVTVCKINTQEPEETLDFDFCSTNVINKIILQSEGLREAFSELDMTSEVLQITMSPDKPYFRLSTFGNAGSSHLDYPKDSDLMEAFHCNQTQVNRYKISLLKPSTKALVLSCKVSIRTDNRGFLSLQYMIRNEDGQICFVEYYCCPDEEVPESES

Turning to RAB32 (UniProt Q13637), the thermal stability z-score is -0.0545 with lipoamide (setting [1]), -0.0863 with lipoamide (arsenate co-treatment: none) and 0.411 with potassium arsenate.
The corresponding values for CD58 (UniProt P19256) are 0.0858, 0.705 and 0.484.
For STAM (UniProt Q92783) the same measures were -0.258, 0.0211 and -0.0683.
For CUL3 (UniProt Q13618) the same measures were -0.1, -0.422 and 0.158.
In the case of C17ORF75 (UniProt Q9HAS0), the thermal stability z-score with lipoamide (setting [1]) was 0.0162; in the test with lipoamide (arsenate co-treatment: none) it was -0.0686; with potassium arsenate it was -0.0267.
On to IPO4 (UniProt Q8TEX9), for which the thermal stability z-score with lipoamide (setting [1]) is -0.55; with lipoamide (arsenate co-treatment: none), -0.394; in the test with potassium arsenate, 0.0408.
Regarding MORC2 (UniProt Q9Y6X9), the thermal stability z-score was -0.165 with lipoamide (setting [1]), -0.0529 with lipoamide (arsenate co-treatment: none) and -0.726 with potassium arsenate.
For GATB (UniProt O75879) the same measures were 0.0276, 0.115 and 0.0266.
The corresponding values for GSTT2|GSTT2B|EM are 0.517, 0.277 and -0.23.
For PDLIM1 (UniProt O00151) the same measures were 0.156, 0.134 and -0.239.
Regarding ATG4C (UniProt Q96DT6), the thermal stability z-score with lipoamide (setting [1]) was determined as 0.0282; with lipoamide (arsenate co-treatment: none), 0.0873; with potassium arsenate, 0.0488.
The corresponding values for ZC3H4 (UniProt Q9UPT8) are 0.112, -0.278 and -1.7.
The corresponding values for NKIRAS2 (UniProt Q9NYR9) are 0.0549, -0.0133 and 0.137.
For AKAP11 (UniProt Q9UKA4) the same measures were 0.0955, 0.0515 and -0.0869.
Turning to LAMA1 (UniProt P25391), the results for the thermal stability z-score in the test with lipoamide (setting [1]), with lipoamide (arsenate co-treatment: none) and with potassium arsenate were -2, -1.82 and 1.13, respectively.
The corresponding values for DOCK6 (UniProt Q96HP0) are -0.406, -0.347 and -0.391.
The corresponding values for CIAO1 (UniProt O76071) are 0.164, 0.0342 and -1.32.
The corresponding values for GATSL2 (UniProt A6NHX0) are 0.724, -1.44 and -0.242.
Take TOR1AIP2: the thermal stability z-score in the test with lipoamide (setting [1]) is -3.46; in the test with lipoamide (arsenate co-treatment: none), -2.77; with potassium arsenate, -0.134.
For the target H1F0 (UniProt P07305), the thermal stability z-score in the test with lipoamide (setting [1]) is 0.135; with lipoamide (arsenate co-treatment: none) it was -0.22; with potassium arsenate, -0.062.
In the case of YPEL5 (UniProt P62699), the thermal stability z-score in the test with lipoamide (setting [1]) was -0.116; with lipoamide (arsenate co-treatment: none) it was -0.259; with potassium arsenate, -0.117.
Consider CDV3 (UniProt Q9UKY7), for which the thermal stability z-score is 0.669 with lipoamide (setting [1]), 0.83 with lipoamide (arsenate co-treatment: none) and 0.683 with potassium arsenate.
For RAD1 (UniProt O60671) the same measures were 1.26, 0.445 and 1.31.
Consider MAP3K6 (UniProt O95382), for which the thermal stability z-score with lipoamide (setting [1]) is 0.0331; in the test with lipoamide (arsenate co-treatment: none), -0.0259; with potassium arsenate, -0.0305.
For GTF2H2|GTF2H2C the same measures were 0.00796, -0.0811 and -0.166.
For DHRS7 (UniProt Q9Y394) the same measures were -0.365, -0.498 and 0.437.
Consider STK38L (UniProt Q9Y2H1), for which the thermal stability z-score with lipoamide (setting [1]) is 0.0467; with lipoamide (arsenate co-treatment: none), 0.0651; with potassium arsenate, 0.201.

The values are drawn from the supplement of paper PMC12463676, “Small-molecule dissolution of stress granules by redox modulation benefits ALS models” (Nature Chemical Biology, 2025).
